From patent US20250360152A1, “NUTRITIONAL COMPOSITION FOR PREVENTING BRONCHITIS” (MEGMILK SNOW BRAND Co., Ltd., priority 2022, published 2025)

What was measured:
[1] = test system: onset of bronchitis in infants; experiment: Two-group comparison of breast milk concentrations (infants ever vs never contracted bronchitis) and Fisher's exact test at a cut-off concentration; type: in vivo, human; settings: for Concentration in the breast milk that reduces the risk of contracting the bronchitis: cut-off of Fisher's exact test; for Concentration in breast milk consumed by infants who had never contracted bronchitis versus infants who had ever contracted bronchitis: two groups, FIG. 1-5
Source text: (§1) Bean Stalk Snow Co., Ltd. Conducted a prospective cohort study (UMIN ID 000015494) from 2014 to 2019 for investigating the relationship between the breast milk components of Japanese and a health status of mothers and children in Japan. In the study, breast milk samples collected from 1,210 mothers and questionnaire results of investigating the health status of mothers and children were used in the study. In addition, 200 samples were randomly selected from the 1,210 samples. The breast milk collected between 1 and 2 months after childbirth was used as the breast milk samples for analysis. Parents filled out questionnaires investigating the health status of their infants six times in total, every two months for one year after birth, and the results were collected. From the questionnaire results, the results were compiled of whether or not the infants were diagnosed with the bronchitis by a doctor within one year after the childbirth. If a description of a presence or absence of the onset of bronchitis was unclear, they were excluded from the study.
(§2) As a result, in the questionnaires conducted six times in total in a year, for 153 samples, questionnaires were answered correctly about whether the infants had been diagnosed with the bronchitis, and the samples became subjects to be analyzed in the study. Of the 153 samples, 18 samples were from infants diagnosed with the bronchitis within one year of birth.
The breast milk samples were divided into two groups, based on whether or not the infants had ever contracted the bronchitis, comparing the total N-acetylneuraminic acids concentrations in the breast milk. […] A distribution range of the total N-acetylneuraminic acids concentrations in the breast milk consumed by the infants who had never contracted the bronchitis was 181-977 mg/L, with a median of 395 mg/L (Table 2). The distribution of the total N-acetylneuraminic acids concentrations was, different from a normal distribution, a distribution spreading out its tail towards its higher end of concentrations. Such a distribution is seen in the distribution of heights and weights of the infants, and the 3rd to 97th percentile of the overall distribution is used as standards when creating growth curves for infants (Infant Physical Development Survey Report 2000). Based on this, the 3rd to 97th percentile was used as a standard range of the total N-acetylneuraminic acids concentrations in the breast milk. A minimum value of the total N-acetylneuraminic acid concentration in the breast milk consumed by the infants who had never contracted the bronchitis was 221 mg/L corresponding to the 3rd percentile of the distribution.

[2] = test system: onset of bronchitis in infants; experiment: Logistic regression: breast milk carbohydrate component concentrations vs onset of bronchitis in infants during first year of life (153 samples); type: in vivo, human; settings: for Odds ratio: concentration in breast milk vs onset of infant bronchitis within one year, adjusted for sex, siblings, method of delivery, birth weight; for Relationship between concentration and the onset of bronchitis (in words) / Regression coefficient: logistic regression; for Regression coefficient: concentration in breast milk vs onset of infant bronchitis
Description: Various carbohydrate components were measured for 153 breast milk samples, analyzing a relationship with a presence or absence of the onset of bronchitis in infants during the first year of life using a logistic regression.
as §1, §2
For the 153 breast milk samples, the relationship between the concentrations of N-acetylneuraminic acid, the oligosaccharide, the N-linked glycan, the O-linked glycan, the disialo N-linked glycan A, and the disialo N-linked glycan B and the onset of infant bronchitis was analyzed using the logistic regression. Sex of the infant, a presence or absence of siblings, the method of delivery (natural birth, cesarean section), and a birth weight were used as adjustment factors.

## CC(=O)N[C@H]1[C@H]([C@H](O)[C@H](O)CO)O[C@@](OC[C@H]2O[C@@H](O[C@H]3[C@H](O)[C@@H](O)[C@H](O)O[C@@H]3CO)[C@H](O)[C@@H](O)[C@H]2O)(C(=O)O)C[C@@H]1O [6′-SL, 6′-sialyllactose]
[1]
  Concentration in the breast milk that reduces the risk of contracting the bronchitis: ≥ 135 mg/L
  Concentration in breast milk consumed by infants who had never contracted bronchitis versus infants who had ever contracted bronchitis: significantly higher

## CC(=O)N[C@H]1[C@H]([C@H](O)[C@H](O)CO)OC(O)(C(=O)O)C[C@@H]1O (some centres unmarked) [Total N-acetylneuraminic acid, N-acetylneuraminic acid]
[1]
  Concentration in the breast milk that reduces the risk of contracting the bronchitis: ≥ 246 mg/L
  Concentration in breast milk consumed by infants who had never contracted bronchitis versus infants who had ever contracted bronchitis: significantly higher
[2]
  Odds ratio: 0.098
  Relationship between concentration and the onset of bronchitis (in words): statistically significant relationship
  Regression coefficient: −2.32

## CC(=O)N[C@H]1[C@H]([C@H](O)[C@H](O)CO)O[C@@](O[C@H]2[C@@H](O)[C@@H](CO)O[C@@H](O[C@H]3[C@H](O)[C@@H](O)C(O)O[C@@H]3CO)[C@@H]2O)(C(=O)O)C[C@@H]1O (some centres unmarked) [3′-SL, 3′-sialyllactose, reference compound]
[2]
  Odds ratio: 0.53
  Relationship between concentration and the onset of bronchitis (in words): not observed
  Regression coefficient: −0.626

## Neu5Acα2-6Galβ1-4GlcNAcβ1-2Manα1-3 (Neu5Acα2-6Galβ1-4GlcNAcβ1-2Manα1-6) Manβ1-4GlcNAcβ1-4 (Fucα1-6) GlcNAc [Disialo N-linked glycan B]
[1]
  Concentration in the breast milk that reduces the risk of contracting the bronchitis: ≥ 0.245 µmol/L
  Concentration in breast milk consumed by infants who had never contracted bronchitis versus infants who had ever contracted bronchitis: significantly higher
[2]
  Odds ratio: 0.24
  Regression coefficient: −1.407
[2]; listed as disialo N-linked glycan B
  Regression coefficient: negative

## Neu5Acα2-6Galβ1-4GlcNAcβ1-2Manαl-3 (Neu5Acα2-6Galβ1-4GlcNAcβ1-2Manα1-6) Manβ1-4GlcNAcβ1-4GlcNAc [Disialo N-linked glycan A]
[1]
  Concentration in the breast milk that reduces the risk of contracting the bronchitis: ≥ 0.313 µmol/L
  Concentration in breast milk consumed by infants who had never contracted bronchitis versus infants who had ever contracted bronchitis: significantly higher
[2]
  Odds ratio: 0.15
  Regression coefficient: −1.918
[2]; listed as disialo N-linked glycan A
  Regression coefficient: negative
